Values joined by “and” are separate entries in the source; they are usually repeats but may differ in a detail not shown here. Equal values may be shown once.
Test system: kidney gene expression
Test: aristolochic acid kidney injury model, kidney RNA sequencing
Type: in vivo, mouse
Conditions: for Fold change of Pdgfra by RNA‐seq, AA + CWHM-12: vehicle 5.02; for Fold change of Pdgfrb by RNA‐seq, AA + CWHM-12: vehicle 6.79; for Fold change of Foxd1 by RNA‐seq, AA + CWHM-12: vehicle 9.55; for Fold change of Gli1 by RNA‐seq, AA + CWHM-12: vehicle 20.44; for Fold change of Crlf1 by RNA‐seq, AA + CWHM-12: vehicle 37.57
Method: Alzet osmotic minipumps (Cupertino, CA) were implanted subcutaneously in 8‐ to 10‐week‐old wild‐type male ICR outbred mice (Envigo) one day prior to induction of kidney injury to deliver vehicle (DMSO/H2O 1:1) or CWHM‐12 at a dose of 100 mg/kg per day. A single 5 mg/kg dose of aristolochic acid I sodium salt (Sigma‐Aldrich, A9451) in PBS was administered intraperitoneally to induce kidney injury, and mice were monitored daily for 27 days thereafter. Control (uninjured) mice were injected with an equal volume of PBS. Blood was obtained by maxillary vein puncture on days 0, 5 (peak injury), and 28 (study endpoint). For testing CWHM‐680, oral gavage (100 mg/kg per day) was started one day prior to injection of aristolochic acid I sodium salt and continued once daily until the study endpoint. Blood was obtained at days 0, 7, and 23 (study endpoint). […] Serum creatinine was measured by liquid chromatography–mass spectrometry (LC–MS/MS) at the University of Alabama O’Brien Center Bioanalytical Core. CWHM‐12 and CWHM‐680 concentrations were measured in plasma samples by liquid chromatography–tandem mass spectrometry (LC/MS/MS) using compound spiked into control plasma as a standard. All experiments were performed under protocols approved by the Institutional Animal Care and Use Committee at St. Louis University.
Total RNA was isolated from four kidneys from each of the three study groups using the RNeasy Plus Mini Kit (Qiagen). The groups were as follows: (a) aristolochic acid plus vehicle, (b) aristolochic acid plus CWHM‐12, and (c) PBS plus vehicle. After ribosomal depletion, we constructed barcoded sequencing libraries using the Ion Total RNA‐seq v2 kits (Life Technologies) according to the manufacturer's instructions. Sequencing was performed on an Ion Torrent Proton with mean read lengths of 85–110 nucleotides, and reads were aligned to the mouse mm10 genome using the TMAP aligner map4 algorithm. Soft clipping at both 5′ and 3′ ends of the reads was permitted during alignment to accommodate spliced reads, with a minimum seed length of 20 nucleotides. Genome‐wide strand‐specific nucleotide coverages were calculated from the aligned bam files for each sample using the “genomecoveragebed” program in BEDTools (Quinlan & Hall, 2010), and the nucleotide coverage for all nonredundant exons for each gene was summed using custom R scripts (http://www.Rproject.org). Normalization factors were calculated by averaging the total exon coverage for all replicates and dividing this average by the total exon coverage for each individual sample. The total coverage for each gene in each replicate was then multiplied by these factors after adding an offset of 1 to each gene to preclude division by 0 in subsequent calculations. The averages and p values of the coverage values for all genes in the individual groups were calculated using Microsoft Excel, using a two‐tailed t‐test. The expression values for each gene are the normalized strand‐specific total nucleotide coverage for each gene. The complete data set can be accessed at https://figshare.com/s/54c7f78b4523873e9b00.

[1] = AA-injured, 100 mg/kg/day s.c. minipump
[2] = AA-injured, 100 mg/kg/day s.c. minipump, relative to uninjured, 100 mg/kg/day
[3] = AA-injured, 100 mg/kg/day s.c. minipump, relative to uninjured, listed as CWHM−12, 100 mg/kg/day

CC(C)(C)c1cc(Br)cc([C@H](CC(=O)O)NC(=O)CNC(=O)c2cc(O)cc(NC3=NCC(O)CN3)c2)c1 (stereo partly shown) [CWHM‐12]
Acta2 RNA‐seq ratio AA + CWHM-12/AA + Vehicle [1]: 0.8473 | Aldh1a2 RNA‐seq ratio AA + CWHM-12/AA + Vehicle [1]: 0.6492 | Col1a1 RNA‐seq ratio AA + CWHM-12/AA + Vehicle [1]: 0.2480 | Col3a1 RNA‐seq ratio AA + CWHM-12/AA + Vehicle [1]: 0.3560 | Col5a3 RNA‐seq ratio AA + CWHM-12/AA + Vehicle [1]: 0.5587 | Crlf1 RNA‐seq ratio AA + CWHM-12/AA + Vehicle [1]: 0.1032 | Ctgf RNA‐seq ratio AA + CWHM-12/AA + Vehicle [1]: 0.5510 | Egf expression increase in injured animals, RNA-seq [1]: twofold | Fbln2 RNA‐seq ratio AA + CWHM-12/AA + Vehicle [1]: 0.5262 | Fn1 RNA‐seq ratio AA + CWHM-12/AA + Vehicle [1]: 0.5243 | Foxd1 RNA‐seq ratio AA + CWHM-12/AA + Vehicle [1]: 0.3427 | Gda RNA‐seq ratio AA + CWHM-12/AA + Vehicle [1]: 0.6302 | Gli1 RNA‐seq ratio AA + CWHM-12/AA + Vehicle [1]: 0.4486 | Gli2 RNA‐seq ratio AA + CWHM-12/AA + Vehicle [1]: 0.8986 | Gli3 RNA‐seq ratio AA + CWHM-12/AA + Vehicle [1]: 0.6039 | Mmp2 RNA‐seq ratio AA + CWHM-12/AA + Vehicle [1]: 0.4013 | NGAL (Lcn2) expression decrease vs vehicle-treated injured mice, RNA-seq [1]: 50% | Nes RNA‐seq ratio AA + CWHM-12/AA + Vehicle [1]: 0.4461 | Pdgfra RNA‐seq ratio AA + CWHM-12/AA + Vehicle [1]: 0.7298 | Pdgfrb RNA‐seq ratio AA + CWHM-12/AA + Vehicle [1]: 0.4393 | Rgs16 RNA‐seq ratio AA + CWHM-12/AA + Vehicle [1]: 0.4692 | Shroom3 RNA‐seq ratio AA + CWHM-12/AA + Vehicle [1]: 0.5633 | Tgfb1 RNA‐seq ratio AA + CWHM-12/AA + Vehicle [1]: 0.5715 | Tgfb2 RNA‐seq ratio AA + CWHM-12/AA + Vehicle [1]: 0.8306 | Tgfb3 RNA‐seq ratio AA + CWHM-12/AA + Vehicle [1]: 0.5937 | Thbs2 RNA‐seq ratio AA + CWHM-12/AA + Vehicle [1]: 0.5603 | Thbs4 RNA‐seq ratio AA + CWHM-12/AA + Vehicle [1]: 0.4558 | reduction of Myc expression, RNA-seq [1]: 35% | reduction of upregulation of eight keratin genes (Krt 7, 8, 15, 18–20, 23, 80), RNA-seq [1]: 15%–50% | decrease of Sox9 induction, RNA-seq (AA-injured, 100 mg/kg/day s.c. minipump, induction 45-fold with vehicle): 57% | Fold change of Gli2 by RNA‐seq, AA + CWHM-12 (AA-injured, 100 mg/kg/day s.c. minipump, relative to uninjured, vehicle 0.87): 0.78 fold | Fold change of Acta2 by RNA‐seq, AA + CWHM-12 (AA-injured, 100 mg/kg/day s.c. minipump, relative to uninjured, vehicle 3.7): 3.2 fold | Fold change of Shroom3 by RNA‐seq, AA + CWHM-12 (AA-injured, 100 mg/kg/day s.c. minipump, relative to uninjured, vehicle 3.9): 2.2 fold | Fold change of Tgfb2 by RNA‐seq, AA + CWHM-12 (AA-injured, 100 mg/kg/day s.c. minipump, relative to uninjured, vehicle 4.9): 4.1 fold | Fold change of Pdgfra by RNA‐seq, AA + CWHM-12 [2]: 3.7 fold | Fold change of Pdgfra by RNA‐seq, AA + CWHM-12 [3]: 3.66 fold | Fold change of Fbln2 by RNA‐seq, AA + CWHM-12 (AA-injured, 100 mg/kg/day s.c. minipump, relative to uninjured, vehicle 5.78): 3.04 fold | Fold change of Col5a3 by RNA‐seq, AA + CWHM-12 (AA-injured, 100 mg/kg/day s.c. minipump, relative to uninjured, vehicle 5.81): 3.25 fold | Fold change of Ctgf by RNA‐seq, AA + CWHM-12 (AA-injured, 100 mg/kg/day s.c. minipump, relative to uninjured, vehicle 6.4): 3.5 fold | Fold change of Pdgfrb by RNA‐seq, AA + CWHM-12 [2]: 3.0 fold | Fold change of Pdgfrb by RNA‐seq, AA + CWHM-12 [3]: 2.98 fold | Fold change of Tgfb1 by RNA‐seq, AA + CWHM-12 (AA-injured, 100 mg/kg/day s.c. minipump, relative to uninjured, vehicle 7.4): 4.2 fold | Fold change of Thbs2 by RNA‐seq, AA + CWHM-12 (AA-injured, 100 mg/kg/day s.c. minipump, relative to uninjured, vehicle 7.78): 4.36 fold | Fold change of Gda by RNA‐seq, AA + CWHM-12 (AA-injured, 100 mg/kg/day s.c. minipump, relative to uninjured, vehicle 8.17): 5.15 fold | Fold change of Tgfb3 by RNA‐seq, AA + CWHM-12 (AA-injured, 100 mg/kg/day s.c. minipump, relative to uninjured, vehicle 8.3): 4.9 fold | Fold change of Thbs4 by RNA‐seq, AA + CWHM-12 (AA-injured, 100 mg/kg/day s.c. minipump, relative to uninjured, vehicle 8.72): 3.97 fold | Fold change of Nes by RNA‐seq, AA + CWHM-12 (AA-injured, 100 mg/kg/day s.c. minipump, relative to uninjured, vehicle 8.77): 3.91 fold | Fold change of Foxd1 by RNA‐seq, AA + CWHM-12 [2]: 3.3 fold | Fold change of Foxd1 by RNA‐seq, AA + CWHM-12 [3]: 3.27 fold | Fold change of Fn1 by RNA‐seq, AA + CWHM-12 (AA-injured, 100 mg/kg/day s.c. minipump, relative to uninjured, vehicle 12.6): 6.6 fold | Fold change of Gli1 by RNA‐seq, AA + CWHM-12 [2]: 9.2 fold | Fold change of Gli1 by RNA‐seq, AA + CWHM-12 [3]: 9.17 fold | Fold change of Mmp2 by RNA‐seq, AA + CWHM-12 (AA-injured, 100 mg/kg/day s.c. minipump, relative to uninjured, vehicle 24.6): 9.9 fold | Fold change of Gli3 by RNA‐seq, AA + CWHM-12 (AA-injured, 100 mg/kg/day s.c. minipump, relative to uninjured, vehicle 24.87): 15.02 fold | Fold change of Col3a1 by RNA‐seq, AA + CWHM-12 (AA-injured, 100 mg/kg/day s.c. minipump, relative to uninjured, vehicle 28.0): 10.0 fold | Fold change of Aldh1a2 by RNA‐seq, AA + CWHM-12 (AA-injured, 100 mg/kg/day s.c. minipump, relative to uninjured, vehicle 32.44): 21.06 fold | Fold change of Crlf1 by RNA‐seq, AA + CWHM-12 [2]: 3.9 fold | Fold change of Crlf1 by RNA‐seq, AA + CWHM-12 [3]: 3.88 fold | Fold change of Col1a1 by RNA‐seq, AA + CWHM-12 (AA-injured, 100 mg/kg/day s.c. minipump, relative to uninjured, vehicle 42.1): 10.4 fold | Fold change of Rgs16 by RNA‐seq, AA + CWHM-12 (AA-injured, 100 mg/kg/day s.c. minipump, relative to uninjured, vehicle 55.80): 26.19 fold | Cdk1 expression level, fold higher, RNA-seq (AA-injured, 100 mg/kg/day s.c. minipump, vehicle 12-fold): 1.9 fold | Ccnb1 expression level, fold higher, RNA-seq (AA-injured, 100 mg/kg/day s.c. minipump, vehicle 23-fold): 1.4 fold | 0610005C13Rik RNA-seq normalized coverage, AA CWHM12.AVE (AA-injured, group average): 114105 | 0610007N19Rik RNA-seq normalized coverage, AA CWHM12.AVE (AA-injured, group average): 54308 | 0610007P14Rik RNA-seq normalized coverage, AA CWHM12.AVE (AA-injured, group average): 56128 | 0610008F07Rik RNA-seq normalized coverage, AA CWHM12.AVE (AA-injured, group average): 5309 | 0610009B14Rik RNA-seq normalized coverage, AA CWHM12.AVE (AA-injured, group average): 1314 | 0610005C13Rik RNA-seq normalized coverage, AA CWHM12 individual replicates (AA-injured, replicates 1-3): 95741 and 94900 and 151673 | 0610007N19Rik RNA-seq normalized coverage, AA CWHM12 individual replicates (AA-injured, replicates 1-3): 42985 and 46254 and 73685 | 0610007P14Rik RNA-seq normalized coverage, AA CWHM12 individual replicates (AA-injured, replicates 1-3): 42349 and 51087 and 74947 | 0610008F07Rik RNA-seq normalized coverage, AA CWHM12 individual replicates (AA-injured, replicates 1-3): 4229 and 2946 and 8751 | 0610009B14Rik RNA-seq normalized coverage, AA CWHM12 individual replicates (AA-injured, replicates 1-3): 1407 and 899 and 1635 | 0610005C13Rik AA CWHM12/AA Vehicle.RATIO (RNA-seq): 2.041 | 0610005C13Rik AA CWHM12/PBS Vehicle.RATIO (RNA-seq): 0.462 | 0610007N19Rik AA CWHM12/AA Vehicle.RATIO (RNA-seq): 1.380 | 0610007N19Rik AA CWHM12/PBS Vehicle.RATIO (RNA-seq): 1.337 | 0610007P14Rik AA CWHM12/AA Vehicle.RATIO (RNA-seq): 1.629 | 0610007P14Rik AA CWHM12/PBS Vehicle.RATIO (RNA-seq): 1.142 | 0610008F07Rik AA CWHM12/AA Vehicle.RATIO (RNA-seq): 4.723 | 0610008F07Rik AA CWHM12/PBS Vehicle.RATIO (RNA-seq): 0.373 | 0610009B14Rik AA CWHM12/AA Vehicle.RATIO (RNA-seq): 1.572 | 0610009B14Rik AA CWHM12/PBS Vehicle.RATIO (RNA-seq): 1.915

Reference: publication PMC7153038, “Pharmacologic inhibition of RGD‐binding integrins ameliorates fibrosis and improves function following kidney injury” (Physiological Reports, 2020)
